Data taken from patent publication US10052320B2, “Substituted quinoxalines as FGFR kinase inhibitors” (ASTEX THERAPEUTICS LIMITED, priority 2011, dated 2018).

How the values were obtained:
FGFR4 (h) = FGFR4 (h) (Homo sapiens, UniProt P22455); test: FGFR4 (enzymatic assay), TR-FRET; type: biochemical; conditions: read-out: FGFR 4 pIC50 (converted)
Description: In a final reaction volume of 30 μL, FGFR4 (h) (60 ng/ml) was incubated with 50 mM HEPES pH 7.5, 6 mM MnCl2, 1 mM DTT, 0.1 mM Na3VO4, 0.01% Triton-X-100, 500 nM Btn-Flt3 and 5 μM ATP in the presence of compound (1% DMSO final). […] Time-Resolved Fluorescence Resonance Energy Transfer (TR-FRET) signal (ex340 nm. Em 620 nm, em 655 nm) was measured afterwards and results are expressed in RFU (Relative Fluorescence Units).

KDR (h) (VEGFR2) = KDR (h) (VEGFR2) (Homo sapiens, UniProt P35968); test: KDR (VEGFR2) (enzymatic assay), TR-FRET; type: biochemical
Summary of the method: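 Low-ATP (3 μM) TR-FRET kinase assay using 500 nM Btn-Flt3 peptide and 150 ng/ml enzyme, run 2 h at room temperature with 6 mM MnCl2 and 0.1 mM Na3VO4. Signal from Eu-anti-P-Tyr/SA-XL-665 is recorded in RFU.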

[1] = biological target: Ba/F3-FGFR1-transfected cells (Homo sapiens, UniProt P11362); test: Ba/F3-FGFR1 (minus IL3) cellular proliferation assay, Alamar Blue; type: cell-based; conditions: for BAF3-FGFR 1 (MIN IL3) 384 well pIC50: minus IL3, 384 well
Summary of the method: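 Proliferation is estimated from Alamar Blue fluorescence after cells grow for one day with test compound in 10% FBS medium at 37 °C, with 4 h dye incubation before reading.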

[2] = biological target: Ba/F3-FGFR3-transfected cells (Homo sapiens, UniProt P22607); test: Ba/F3-FGFR3 (minus IL3) cellular proliferation assay, Alamar Blue; type: cell-based; conditions: for BAF3-FGFR 3 (MIN IL3) 384 well pIC50: minus IL3, 384 well
Summary of the method: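 With or without 10 ng/ml murine IL3, transfected Ba/F3-FGFR3 cells in serum-containing RPMI-1640 receive compound for 24 h at 37 °C. Growth is then gauged by resazurin conversion over 4 h, read as relative fluorescence units.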

[3] = biological target: Ba/F3-FGFR4-transfected cells (Homo sapiens, UniProt P22455); test: Ba/F3-FGFR4 cellular proliferation assay, Alamar Blue; type: cell-based
Summary of the method: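 Alamar Blue fluorescence (540/590 nm, 4 h development) measured growth of FGFR4-transfected Ba/F3 cells after 24 h compound treatment at 37° C. Cells were seeded at 20000/well in RPMI-1640, 10% FBS.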

Sequence of Ba/F3-FGFR1-transfected cells (P11362 whole entry, change not shown): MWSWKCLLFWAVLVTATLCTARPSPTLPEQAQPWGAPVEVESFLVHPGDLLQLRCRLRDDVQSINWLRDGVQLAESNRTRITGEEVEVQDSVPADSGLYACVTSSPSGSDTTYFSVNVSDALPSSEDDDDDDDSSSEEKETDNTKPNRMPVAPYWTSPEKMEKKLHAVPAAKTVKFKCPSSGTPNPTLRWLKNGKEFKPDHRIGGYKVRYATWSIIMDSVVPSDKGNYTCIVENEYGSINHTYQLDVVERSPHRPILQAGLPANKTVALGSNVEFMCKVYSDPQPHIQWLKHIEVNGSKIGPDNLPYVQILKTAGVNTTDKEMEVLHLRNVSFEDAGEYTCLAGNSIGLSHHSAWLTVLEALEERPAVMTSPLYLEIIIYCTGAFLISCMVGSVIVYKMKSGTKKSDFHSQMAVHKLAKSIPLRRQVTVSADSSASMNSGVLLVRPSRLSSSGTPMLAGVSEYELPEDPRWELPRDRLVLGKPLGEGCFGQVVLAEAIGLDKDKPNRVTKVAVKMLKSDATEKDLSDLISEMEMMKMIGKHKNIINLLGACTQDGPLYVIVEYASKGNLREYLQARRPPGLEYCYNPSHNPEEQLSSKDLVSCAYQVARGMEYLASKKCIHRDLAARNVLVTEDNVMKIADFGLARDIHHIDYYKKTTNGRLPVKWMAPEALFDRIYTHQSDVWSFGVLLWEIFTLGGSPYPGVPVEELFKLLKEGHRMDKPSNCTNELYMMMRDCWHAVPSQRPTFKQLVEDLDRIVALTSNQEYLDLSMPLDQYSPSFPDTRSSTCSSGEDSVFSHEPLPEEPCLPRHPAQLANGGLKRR
Sequence of KDR (h) (VEGFR2) (P35968 20-1356): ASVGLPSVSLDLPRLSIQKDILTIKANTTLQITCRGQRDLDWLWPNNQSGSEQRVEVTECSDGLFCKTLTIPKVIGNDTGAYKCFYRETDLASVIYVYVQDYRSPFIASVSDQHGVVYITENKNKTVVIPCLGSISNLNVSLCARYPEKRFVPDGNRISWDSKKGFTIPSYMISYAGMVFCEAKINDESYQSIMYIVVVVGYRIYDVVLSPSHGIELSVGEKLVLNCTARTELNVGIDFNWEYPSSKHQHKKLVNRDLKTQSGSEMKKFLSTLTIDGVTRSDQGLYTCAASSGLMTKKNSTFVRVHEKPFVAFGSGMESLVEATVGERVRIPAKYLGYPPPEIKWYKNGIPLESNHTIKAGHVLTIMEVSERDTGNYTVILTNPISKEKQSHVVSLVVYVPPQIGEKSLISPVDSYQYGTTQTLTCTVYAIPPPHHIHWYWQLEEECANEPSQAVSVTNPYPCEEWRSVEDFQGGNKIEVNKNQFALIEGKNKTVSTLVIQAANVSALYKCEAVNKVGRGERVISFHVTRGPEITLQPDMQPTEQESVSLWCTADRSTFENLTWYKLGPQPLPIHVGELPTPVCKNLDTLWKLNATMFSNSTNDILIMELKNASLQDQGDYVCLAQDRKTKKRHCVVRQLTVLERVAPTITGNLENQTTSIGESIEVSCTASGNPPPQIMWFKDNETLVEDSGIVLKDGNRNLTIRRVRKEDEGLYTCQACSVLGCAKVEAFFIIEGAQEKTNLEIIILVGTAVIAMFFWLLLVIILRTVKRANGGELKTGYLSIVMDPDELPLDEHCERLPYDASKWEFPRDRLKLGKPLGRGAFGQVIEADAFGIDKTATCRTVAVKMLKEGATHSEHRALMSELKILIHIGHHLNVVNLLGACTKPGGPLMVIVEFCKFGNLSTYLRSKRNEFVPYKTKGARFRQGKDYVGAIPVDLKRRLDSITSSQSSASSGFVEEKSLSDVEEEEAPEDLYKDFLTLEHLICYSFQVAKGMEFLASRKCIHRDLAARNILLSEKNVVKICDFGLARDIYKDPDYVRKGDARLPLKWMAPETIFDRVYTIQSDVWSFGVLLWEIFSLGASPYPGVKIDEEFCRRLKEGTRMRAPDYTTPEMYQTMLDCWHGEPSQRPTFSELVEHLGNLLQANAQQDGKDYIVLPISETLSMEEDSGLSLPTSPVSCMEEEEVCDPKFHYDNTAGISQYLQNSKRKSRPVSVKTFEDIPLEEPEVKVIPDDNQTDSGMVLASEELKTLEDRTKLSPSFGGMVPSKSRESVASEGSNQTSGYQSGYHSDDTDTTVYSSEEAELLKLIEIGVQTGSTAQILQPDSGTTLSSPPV
Sequence of Ba/F3-FGFR4-transfected cells (P22455 whole entry, change not shown): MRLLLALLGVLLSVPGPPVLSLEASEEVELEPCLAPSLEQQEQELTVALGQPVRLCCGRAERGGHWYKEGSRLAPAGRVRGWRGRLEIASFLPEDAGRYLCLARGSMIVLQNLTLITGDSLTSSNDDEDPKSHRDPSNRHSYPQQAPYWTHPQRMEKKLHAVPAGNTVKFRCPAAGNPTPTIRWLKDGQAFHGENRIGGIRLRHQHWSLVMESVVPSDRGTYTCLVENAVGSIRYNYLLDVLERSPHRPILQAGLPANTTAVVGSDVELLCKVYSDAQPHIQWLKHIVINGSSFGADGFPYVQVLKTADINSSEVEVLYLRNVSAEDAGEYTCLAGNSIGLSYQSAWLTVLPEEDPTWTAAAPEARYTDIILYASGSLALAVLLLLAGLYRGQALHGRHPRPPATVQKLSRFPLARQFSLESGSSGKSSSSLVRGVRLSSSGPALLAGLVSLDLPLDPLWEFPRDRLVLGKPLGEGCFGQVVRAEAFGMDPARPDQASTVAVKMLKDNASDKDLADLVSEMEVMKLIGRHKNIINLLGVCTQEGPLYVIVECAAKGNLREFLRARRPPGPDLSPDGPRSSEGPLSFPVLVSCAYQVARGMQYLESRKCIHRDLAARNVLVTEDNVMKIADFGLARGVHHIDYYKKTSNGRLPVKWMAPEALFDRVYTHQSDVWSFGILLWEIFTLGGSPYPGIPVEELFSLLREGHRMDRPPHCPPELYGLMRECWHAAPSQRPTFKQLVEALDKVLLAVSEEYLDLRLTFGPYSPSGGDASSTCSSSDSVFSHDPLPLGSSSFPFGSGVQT
Sequence of FGFR4 (h) (P22455 22-802): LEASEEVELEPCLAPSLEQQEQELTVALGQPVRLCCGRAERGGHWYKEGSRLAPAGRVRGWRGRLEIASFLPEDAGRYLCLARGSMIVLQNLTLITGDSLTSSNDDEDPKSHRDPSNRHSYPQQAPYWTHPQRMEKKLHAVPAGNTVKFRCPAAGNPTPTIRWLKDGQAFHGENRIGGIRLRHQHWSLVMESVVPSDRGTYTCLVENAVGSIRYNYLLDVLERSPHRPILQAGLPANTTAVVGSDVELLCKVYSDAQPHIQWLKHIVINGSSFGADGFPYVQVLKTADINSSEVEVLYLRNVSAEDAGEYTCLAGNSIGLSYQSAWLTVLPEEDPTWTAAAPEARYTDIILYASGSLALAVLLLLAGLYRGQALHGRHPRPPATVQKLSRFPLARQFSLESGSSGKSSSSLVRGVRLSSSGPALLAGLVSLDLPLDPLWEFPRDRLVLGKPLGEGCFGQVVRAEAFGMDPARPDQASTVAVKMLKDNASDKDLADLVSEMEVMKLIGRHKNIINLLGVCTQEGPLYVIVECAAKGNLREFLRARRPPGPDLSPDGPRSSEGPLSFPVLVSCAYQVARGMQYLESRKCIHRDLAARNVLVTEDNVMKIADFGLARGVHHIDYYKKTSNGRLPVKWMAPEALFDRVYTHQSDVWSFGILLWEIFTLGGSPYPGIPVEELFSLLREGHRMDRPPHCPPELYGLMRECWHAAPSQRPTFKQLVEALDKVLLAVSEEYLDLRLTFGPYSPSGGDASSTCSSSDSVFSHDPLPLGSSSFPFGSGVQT
Sequence of Ba/F3-FGFR3-transfected cells (P22607 whole entry, change not shown): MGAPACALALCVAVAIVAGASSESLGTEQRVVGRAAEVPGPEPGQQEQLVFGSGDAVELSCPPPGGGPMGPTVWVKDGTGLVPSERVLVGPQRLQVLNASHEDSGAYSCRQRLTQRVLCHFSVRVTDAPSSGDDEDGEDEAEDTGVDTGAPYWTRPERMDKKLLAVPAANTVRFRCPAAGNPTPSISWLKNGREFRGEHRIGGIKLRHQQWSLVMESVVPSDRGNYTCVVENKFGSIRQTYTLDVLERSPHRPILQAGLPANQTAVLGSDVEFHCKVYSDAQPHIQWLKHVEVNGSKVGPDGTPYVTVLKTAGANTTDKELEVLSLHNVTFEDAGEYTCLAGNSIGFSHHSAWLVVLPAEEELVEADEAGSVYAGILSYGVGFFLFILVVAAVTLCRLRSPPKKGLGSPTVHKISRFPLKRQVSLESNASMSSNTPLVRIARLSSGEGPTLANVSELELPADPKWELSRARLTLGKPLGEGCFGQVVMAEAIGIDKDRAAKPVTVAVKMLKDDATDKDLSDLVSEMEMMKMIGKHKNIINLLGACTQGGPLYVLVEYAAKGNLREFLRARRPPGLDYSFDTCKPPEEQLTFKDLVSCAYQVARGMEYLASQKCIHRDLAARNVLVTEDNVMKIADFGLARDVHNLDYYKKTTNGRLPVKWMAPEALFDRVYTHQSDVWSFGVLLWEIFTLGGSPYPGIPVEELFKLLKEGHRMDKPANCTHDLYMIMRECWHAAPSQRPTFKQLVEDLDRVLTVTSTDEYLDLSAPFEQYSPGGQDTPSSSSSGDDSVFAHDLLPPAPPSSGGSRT

| Structure (SMILES) | IC50 (FGFR4 (h)) [nM] | IC50 (KDR (h) (VEGFR2)) [nM] | BAF3-FGFR 1 (MIN IL3) 384 well pIC50 [1] | BAF3-FGFR 3 (MIN IL3) 384 well pIC50 [2] | BAF3-FGFR4 pIC50 [3] | melting point [°C] | BAF3-FGFR 1 (MIN IL3) 96 well pIC50 ([1]; minus IL3, 96 well) | BAF3-FGFR 3 (MIN IL3) 96 well pIC50 ([2]; minus IL3, 96 well) |
| --- | --- | --- | --- | --- | --- | --- | --- | --- |
| COc1cc(OC)cc(N(Cc2cccc(CN)n2)c2ccc3ncc(-c4ccc(N)nc4)nc3c2)c1 [Compound 51] | 69.2 | 309 | 5.88 | ~5.77 | 5.7 | – | – | – |
| COc1cc(OC)cc(N(CC(OC(C)=O)C(F)(F)F)c2ccc3ncc(-c4cccnc4)nc3c2)c1 (single isomer, unassigned) [Compound 45] | – | > 1000 | – | – | – | – | – | – |
| COc1cc(OC)cc(N(CC2CC2)c2ccc3ncc(-c4cnn(C)n4)nc3c2)c1 [Compound 70] | – | > 1000 | – | – | – | 129 | – | – |
| COc1cc(OC)cc(N(CCCO)c2ccc3ncc(-c4ccc(N5CCOCC5)nc4)nc3c2)c1 [Compound 124] | 33.1 | 102 | 6.24 | ~6.64 | 6.1 | – | – | – |
| COc1cc(OC)cc(N(CC2CC2)c2ccc3ncc(-c4ccn[nH]4)nc3c2)c1 [Compound 58] | 550 | > 1000 | – | – | <5 | – | <5 | 5.56 |
| COc1cc(OC)cc(N(CC2CC2)c2ccc3ncc(-c4ccc5c(ccn5C)c4)nc3c2)c1 [Compound 20] | – | > 10000 | – | – | – | – | – | – |
| COc1cc(OC)cc(N(CC2CC2)c2ccc3ncc(-c4cn(C)nn4)nc3c2)c1 [Compound 71] | – | 813 | – | – | – | 141 | – | – |
| COc1cc(OC)cc(N(CC(OC(C)=O)C(F)(F)F)c2ccc3ncc(-c4cccnc4)nc3c2)c1 (single isomer, unassigned) [Compound 75] | – | – | – | – | – | 180 | – | – |
| COc1cc(OC)cc(N(CC(O)C(F)(F)F)c2ccc3ncc(-c4cccnc4)nc3c2)c1 (single isomer, unassigned) [Compound 54] | – | 794 | – | – | – | 210 | – | – |
| COc1cc(OC)cc(N(CC2CC2)c2ccc3ncc(Nc4cnn(C)c4)nc3c2)c1 [Compound 61] | – | > 1000 | – | – | – | 160 | – | – |
| COc1cc(OC)cc(N(CC(O)C(F)(F)F)c2ccc3ncc(-c4cccnc4)nc3c2)c1 (single isomer, unassigned) [Compound 53] | – | 363 | – | – | – | 211 | – | – |
| COc1cc(OC)cc(N(CC2CC2)c2ccc3ncc(-c4ccnn4C)nc3c2)c1 [Compound 18] | – | > 10000 | – | – | – | 132 | – | – |
| COc1cc(OC)cc(N(CC2CC2)c2ccc3ncc(-c4cc[nH]c4)nc3c2)c1 [Compound 36] | – | 676 | – | – | – | – | – | – |

Now from value to compound:

| IC50 (FGFR4 (h)) [nM] | IC50 (KDR (h) (VEGFR2)) [nM] | BAF3-FGFR 1 (MIN IL3) 384 well pIC50 [1] | BAF3-FGFR 3 (MIN IL3) 384 well pIC50 [2] | BAF3-FGFR4 pIC50 [3] | melting point [°C] | BAF3-FGFR 1 (MIN IL3) 96 well pIC50 ([1]; minus IL3, 96 well) | BAF3-FGFR 3 (MIN IL3) 96 well pIC50 ([2]; minus IL3, 96 well) | Structure (SMILES) |
| --- | --- | --- | --- | --- | --- | --- | --- | --- |
| 7.94 | 49 | 6.45 | 6.42 | 6.4 | – | – | – | COc1cc(OC)cc(N(CCNC(C)C)c2ccc3ncc(-c4ccccc4)nc3c2)c1 [Compound 121] |
| 3.47 | 20 | 8.13 | ~7.69 | 7.2 | – | – | – | COc1cc(OC)cc(N(CCNC(C)C)c2ccc3ncc(-c4ccn(C)c4)nc3c2)c1 [Compound 8] |
| 23.4 | 295 | 7.55 | 7.53 | 6.6 | – | – | – | COc1cc(OC)cc(N(CCNC(C)C)c2ccc3ncc(-c4cccnc4)nc3c2)c1 [Compound 10] |
| 38.9 | 126 | 5.91 | 6.62 | 6.4 | – | – | – | COCCCN(c1cc(OC)cc(OC)c1)c1ccc2ncc(-c3ccn(C)c3)nc2c1 [Compound 3] |
| – | 708 | – | – | – | 136 | – | – | COc1cc(OC)cc(N(CC2CC2)c2ccc3ncc(-c4cn(C)cn4)nc3c2)c1 [Compound 21] |
| – | 295 | – | – | – | 110 | – | – | COc1cc(OC)cc(N(CC2CC2)c2ccc3ncc(-c4ccn(C)c4)nc3c2)c1 [Compound 73] |
| – | 151 | – | – | – | 143 | – | – | COc1cc(OC)cc(N(CC2CC2)c2ccc3ncc(-c4ccn(CCO)c4)nc3c2)c1 [Compound 56] |
